According to PubChem BioAssay (NCI):
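Compound exposure: 48 hours, 5 concentrations, 96-well plates. Definition used: TGI = concentration required for complete inhibition of growth.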

How the values were obtained:
Experiment in all cases: NCI anticancer screen, dose series, 48 h
BT-549 breast = test system: BT-549 breast
SNB-75 CNS = test system: SNB-75 CNS
A549 NSCLC = test system: A549 NSCLC
KM12 colon = test system: KM12 colon
T-47D breast = test system: T-47D breast
CAKI-1 renal = test system: CAKI-1 renal
SN12C renal = test system: SN12C renal
RXF 393 renal = test system: RXF 393 renal
HCT-116 colon = test system: HCT-116 colon
HOP-92 NSCLC = test system: HOP-92 NSCLC
ACHN renal = test system: ACHN renal

Row | SMILES | TGI (BT-549 breast) | TGI (SNB-75 CNS) | TGI (A549 NSCLC) | TGI (KM12 colon) | TGI (T-47D breast) | TGI (CAKI-1 renal) | TGI (SN12C renal) | TGI (RXF 393 renal) | TGI (HCT-116 colon) | TGI (HOP-92 NSCLC) | TGI (ACHN renal)
1 | CN(C)CCCN1CCC2(CCC(C(C)(C)C)CC2)CC1 | 24.5 µM | 4.11 µM | 12.1 µM | 6.18 µM | 3.99 µM | 7.55 µM | 20.6 µM | 4.13 µM | 3.19 µM | 10.1 µM | 18.8 µM
2 | CCOC(=O)CC[C@H](NC(=O)[C@H](N)Cc1ccc(N(CCCl)CCCl)cc1)C(=O)OCC | > 65.3 µM | 35.3 µM | > 100 µM | 31.8 µM | 38.6 µM | > 37.1 µM | > 62.4 µM | 29.7 µM | > 68 µM | 18.3 µM | > 100 µM
3 | COc1ccc(C(OCC2OC(n3cc(C)c(=O)[nH]c3=O)CC2n2cc(Cn3cc(Cl)c(=O)[nH]c3=O)nn2)(c2ccccc2)c2ccccc2)cc1 (stereo not drawn) | > 100 µM | > 100 µM | > 100 µM | > 100 µM | > 100 µM | > 100 µM | > 100 µM | > 100 µM | > 100 µM | > 100 µM | > 100 µM
4 | CN(C)C1(N(C)C)Oc2c(c(=O)n(C)c(=O)n2C)C(c2ccccc2)C1(F)F (stereo not drawn) | > 100 µM | > 100 µM | > 100 µM | > 100 µM | > 100 µM | > 100 µM | – | > 100 µM | > 100 µM | > 100 µM | > 100 µM
5 | O=c1[nH]nc(Cc2ccccc2)n1/N=C/c1ccccc1O | > 100 µM | – | > 100 µM | > 100 µM | > 100 µM | > 100 µM | > 100 µM | 53.5 µM | > 100 µM | > 100 µM | > 100 µM
6 | CCOC(=O)CN1C(=O)c2ccc(NC(=O)C(=O)O)cc2S1(=O)=O | > 100 µM | – | > 100 µM | > 100 µM | > 100 µM | > 100 µM | > 100 µM | > 100 µM | > 100 µM | > 100 µM | > 100 µM
7 | N#Cc1c(-c2ccc(Cl)cc2Cl)nc2[nH][nH]c(=S)n2c1=O | > 100 µM | – | > 100 µM | > 100 µM | > 100 µM | > 100 µM | > 100 µM | > 100 µM | > 100 µM | > 100 µM | > 100 µM
8 | CC#CCOC(=O)c1ccccc1OC(C)=O | > 100 µM | > 100 µM | – | > 100 µM | > 100 µM | > 100 µM | > 100 µM | > 100 µM | > 100 µM | > 100 µM | > 100 µM
